Data on five molecules can be found in US4824855A, “1,4-dihydropyridine derivatives” (Sanwa Kagaku Kenkyusho Co., Ltd., priority 1985, dated 1989).

Structures are written as SMILES. Entries after “also recorded” stand apart in the source; their conditions may differ. Read-outs that look alike come from different tables or passages of the source.

For data set [1], the system named is spiral strip of New Zealand white rabbit aorta. The data set can be described thus: Ca antagonistic effect (Magnus method, Ca-induced contraction after K depolarization). Format: cell-based. The protocol:
Ca antagonistic effect was examined on a spiral strip of New Zealand white rabbit aorta with the Magnus method. The response of preparations was recorded isometically on a recorder. […] The data given in following Table 1 are presented as inhibitory % to concentration without the compound.

For a further data set, the system named is left atrium. The data set can be described thus: Negative inotropic effect on electrically driven left atrium. Format: cell-based, New Zealand white rabbit. To be noted: Oryctolagus cuniculus; for inhibition at 100 µM: Concentration of the compound 10^-4 mol; for inhibition at 10 µM: Concentration of the compound 10^-5 mol; for IC50: read-out: ID50 (× 10^-4). The protocol:
New Zealand white rabbit was killed by bleeding from the carotid artery and the left atrium was quickly removed. […] The response of preparations was recorded isometically on a recorder. The initial tension applied to the preparation was adjusted to 1 g.

Data set [2] concerns vertebral arterial blood flow. The data set can be described thus: Effect of compounds on vertebral arterial blood flow in anesthetized dogs. Format: in vivo, mongrel dogs. To be noted: 1 μg/kg, i.v. The protocol:
(§1) An experiment was carried out by anesthetizing adult male and female mongrel dogs (weight; 10-20 kg) with Nembutal (30 mg/kg i.p.) and artificially respiring (20 ml/kg/stroke, 20 strokes/min) the animals.
(§2) Right vertebral and femoral arteries were exposed and each probe of electro-magnetic flow meter was fitted therein to measure vertebral and femoral arterial blood flow. A cannula was inserted into descending aorta from left femoral artery in order to measure blood pressure by pressure transducer connected to amplifier. Each of test compounds dissolved in 50% ethanol solution (1 μg/kg, i.v.) was administered from the cannula into cephlic vein.

The subject of data set [3] is femoral arterial blood flow. The data set is described as follows: Effect of compounds on femoral arterial blood flow in anesthetized dogs. Format: in vivo, mongrel dogs. The conditions noted are these: 1 μg/kg, i.v. The protocol: as §1, §2
The subject of a further data set is diastolic blood pressure. The data set can be described thus: Effect of compounds on diastolic blood pressure in anesthetized dogs. Format: in vivo, mongrel dogs. To be noted: 1 μg/kg, i.v. The protocol:
as §1, §2

The nature of data set [4]: Acute toxicity (oral, Litchfield-Wilcoxon method). The conditions noted are these: mouse, in vivo, dd mice, observation for 72 hours. The procedure: Male and female dd mice were used (weight: 18-20 g). Each of compounds to be tested was dissolved in 1% Nikkol and administered directly into stomach by forced oral administration and with use of a metal sonde. LD50 of the compounds were calculated by Litchfield-Wilcoxon method, after observation for 72 hours.

The subject of data set [5] is spontaneously hypertensive male rats. The data set is described as follows: Blood pressure depressing action (systolic pressure). The conditions noted are these: 3.0 mg/kg oral. Format: in vivo. From the text:
The testing or control compound was orally administered to the indicated number (N) of spontaneously hypertensive male rats (15 or more weeks old).

For data set [6], the system named is vertebral arterial blood flow. The data set is described as follows: Vertebral and femoral arterial blood flow increasing action (ED50). Format: in vivo. To be noted: Canis lupus familiaris, iv; amount required to increase the vertebral arterial blood flow by 50%, anesthetized dogs. The procedure: The bloodflow increasing action of the compounds was measured on anesthetized dogs, in a manner similar to that of Pharmaceutical Test Example 3, to obtain the results shown in Table 6 below:
ED50 in the Table indicates the amount of the compound required to increase the vertebral arterial blood flow by 50%.

For data set [7] the following is noted: related arts; cited from earlier work.
Where [8] appears, read: compound 10^-7 mol, Concentration of Ca ion 2.5 mM.
Where [9] appears, read: compound 10^-7 mol, Concentration of Ca ion 5.0 mM.
[10] abbreviates: compound 10^-8 mol, Concentration of Ca ion 2.5 mM.
Setting [11] is: compound 10^-8 mol, Concentration of Ca ion 5.0 mM.
Setting [12] is: negative inotropic effect, compound concentrations in the table in mol.

As to `CC1=C(C(=O)OCCN(C)Cc2ccccc2)C(c2cccc([N+](=O)[O-])c2)C(C(=O)OCC2CC2)=C(C)N1` (centres unmarked) [Example 1, 3-cyclopropylmethyl 5-[2-(N-benzyl-N-methylamino)ethyl] 1,4-dihydro-2,6-dimethyl-4-(3-nitrophenyl)pyridine-3,5-dicarboxylate], the “Inhibitory (%)” value in [1] (setting [8]) is on record as 94.7 ± 3.72%; in data set [1] (setting [9]) it was more than 100%; in data set [1] (setting [10]) it was 76.1 ± 6.62%; in [1] (setting [11]) it was 81.3 ± 5.46%. For the same molecule, the inhibition at 100 µM in the data set on left atrium (read-out: Change (%)) turned out to be 15.7%. In the data set with left atrium (read-out: Change (%)), the inhibition at 10 µM is 7.4%. Besides, the IC50 in the data set with left atrium (setting [12]) stood at 320 µM. In addition, the “Change (%) VABF” value in [2] turned out to be 51 ± 13%. For the same molecule, the “Change (%) FABF” value in [3] is 25 ± 8%. Besides, in the data set on diastolic blood pressure, the “Change (%) DBP” value is -9 ± 1%. This molecule also came in with an LD50 at 72 h in data set [4] of 211 mg/kg.
For the molecule `CC1=C(C(=O)OCCN(C)Cc2ccc(Cl)cc2)C(c2cccc([N+](=O)[O-])c2)C(C(=O)OCC2CC2)=C(C)N1` (centres unmarked) [Example 3, 3-[2-[N-(4-chlorobenzyl)-N-methylamino]ethyl] 5-cyclopropylmethyl 1,4-dihydro-2,6-dimethyl-4-(3-nitrophenyl)pyridine-3,5-dicarboxylate], in data set [2], the “Change (%) VABF” value is 56 ± 12%. In [3], the “Change (%) FABF” value came out at 23 ± 8%. Moreover, in the data set on diastolic blood pressure, the “Change (%) DBP” value is given as -8 ± 1%.
With `COc1ccc(CN(C)CCOC(=O)C2=C(C)NC(C)=C(C(=O)OCC3CC3)C2c2cccc([N+](=O)[O-])c2)cc1` (centres unmarked) [Example 4, 3-cyclopropylmethyl 5-[2-[N-(4-methoxybenzyl)-N-methylamino]ethyl] 1,4-dihydro-2,6-dimethyl-4-(3-nitrophenyl)pyridine-3,5-dicarboxylate], the “Change (%) VABF” value in [2] is 33 ± 5%. Besides, the “Change (%) FABF” value in data set [3] is listed as 19 ± 6%. The “Change (%) DBP” value with diastolic blood pressure was -6 ± 1%.
As to `COC(=O)C1=C(C)NC(C)=C(C(=O)OCCN(C)Cc2ccccc2)C1c1cccc([N+](=O)[O-])c1` (centres unmarked) [Nicardipine, 1,4-dihydro-2,6-dimethyl-4-(3-nitrophenyl)-pyridine-3,5-dicarboxylic acid 3-2-(N-benzyl-N-methylamino)ethyl 5-methyl ester], the “Inhibitory (%)” value was 90.9 ± 12.06% in [1] (setting [8]), 83.2 ± 15.93% in data set [1] (setting [9]), 26.5 ± 18.40% in [1] (setting [10]) and 16.3 ± 21.28% in data set [1] (setting [11]). For the same molecule, the inhibition at 100 µM in the data set with left atrium (read-out: Change (%)) turned out to be 25.6%. Also, the inhibition at 10 µM in the data set on left atrium (read-out: Change (%)) amounted to 13.5%. The inhibition at 1 µM with left atrium (Concentration of the compound 10^-6 mol, read-out: Change (%)) worked out at 3.4%. Moreover, the IC50 in the data set on left atrium (setting [12]) amounted to 34 µM. Moreover, the “Change (%) VABF” value in data set [2] was 32 ± 7%. Besides, the “Change (%) FABF” value in data set [3] was 14 ± 5%. The “Change (%) DBP” value in the data set with diastolic blood pressure was -10 ± 1%. In [4], this molecule registered an LD50 at 72 h of 305 mg/kg. Further, the “Systolic pressure (change from pre-value)” value is -10.0 ± 2.28 mm Hg in [5] (1 hr); -5.7 ± 1.61 mm Hg in [5] (2 hr); -3.0 ± 2.01 mm Hg in data set [5] (4 hr); -1.0 ± 1.50 mm Hg in [5] (6 hr); -4.2 ± 1.88 mm Hg in data set [5] (24 hr). In data set [6], this molecule had an ED50 of 0.0042 mg/kg. In data set [7], the “effect on cerebral blood flow” value is reported as “high cerebral blood flow increasing action”.
For `COC(=O)C1=C(C)NC(C)=C(C(=O)OC)C1c1ccccc1[N+](=O)[O-]` [Nifedipine, dimethyl ester of 1,4-dihydro-2,6-dimethyl-4-(2-nitropheny)pyridine-3,5-dicarboxylic acid], the “Inhibitory (%)” value was more than 100% in data set [1] (setting [8]), more than 100% in [1] (setting [9]), 63.5 ± 7.33% in data set [1] (setting [10]) and 62.3 ± 7.91% in data set [1] (setting [11]). For the same molecule, the IC50 in the data set on left atrium was found to be 120 µM. The inhibition at 100 µM in the data set with left atrium (read-out: Change (%)) was 19%. For the same molecule, in the data set with left atrium (read-out: Change (%)), the inhibition at 10 µM came out at 9.5%. In addition, the “Systolic pressure (change from pre-value)” value in data set [5] (1 hr) is given as -19.3 ± 4.41 mm Hg; in data set [5] (2 hr), -10.6 ± 3.14 mm Hg; in data set [5] (4 hr), -4.3 ± 2.70 mm Hg; in data set [5] (6 hr), -0.1 ± 1.56 mm Hg; in [5] (24 hr) it was -1.1 ± 1.06 mm Hg. Further, in [7], the “effect on cerebral blood flow” value was “tendency of causing a relative decrease on cerebral blood flow”. Moreover, in [7], the pharmaceutical activities entry is listed as “coronary vasodilating action, blood pressure depressing action; also recorded: powerful depressing action”.
